Test results published in US10588317B2, “Isoxazoline-substituted benzamides and analogues as insecticides” (priority 2015, dated 2020).

Tests used:
Format in all cases: in vivo
[1] = tested on: Diabrotica balteata; assay: Diabrotica balteata (corn root worm), sprayed maize sprouts; conditions: 96 h, application rate 200 ppm, L2 larvae, 4 days after infestation, read-out: effect in at least one of the two categories (mortality or growth inhibition)
How it was run: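 Read-out at 4 days post-infestation: mortality and growth inhibition relative to untreated samples. Test solutions (200 ppm, from DMSO stocks) were sprayed onto agar-held maize sprouts, which after drying received 6–10 L2 larvae per well.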

[2] = tested on: Plutella xylostella; assay: Plutella xylostella (diamond back moth), artificial diet; conditions: 120 h, application rate 200 ppm, L2 larvae, 5 days after infestation, read-out: effect in at least one of the two categories (mortality or growth inhibition)
How it was run: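 L2 larvae (10-15 per well) fed on compound-treated, dried artificial diet; test solutions diluted in water from 10'000 ppm DMSO stocks. Readout 5 days post-infestation as mortality or growth inhibition versus untreated diet, with at least 80% effect at 200 ppm as threshold.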

[3] = tested on: Myzus persicae; assay: Myzus persicae (green peach aphid): feeding/contact activity; conditions: 144 h, application rate 200 ppm, aphid population of mixed ages, 6 days after infestation, read-out: mortality
Description: (§1) Sunflower leaf discs were placed onto agar in a 24-well microtiter plate and sprayed with aqueous test solutions prepared from 10'000 ppm DMSO stock solutions. After drying, the leaf discs were infested with an aphid population of mixed ages. The samples were assessed for mortality 6 days after infestation.

[4] = tested on: Tetranychus urticae; assay: Tetranychus urticae (two-spotted spider mite): feeding/contact activity; conditions: 192 h, application rate 200 ppm, mixed population (mobile stages), 8 days after infestation, read-out: mortality
Description: Bean leaf discs on agar in 24-well microtiter plates were sprayed with aqueous test solutions prepared from 10'000 ppm DMSO stock solutions. After drying the leaf discs were infested with a mite population of mixed ages. The samples were assessed for mortality on mixed population (mobile stages) 8 days after infestation.

[5] = tested on: Spodoptera littoralis; assay: Spodoptera littoralis (Egyptian cotton leaf worm), sprayed cotton leaf discs; conditions: foliar, 72 h, application rate 200 ppm, L1 larvae, 3 days after infestation, read-out: control (mortality, anti-feeding effect, growth inhibition)
How it was run: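 Five first-instar larvae placed on dried cotton leaf discs (on agar) previously sprayed with aqueous dilutions of 10'000 ppm DMSO stocks. Scored at 3 days against untreated discs for mortality, feeding inhibition and growth inhibition; any category above untreated counts as control.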

[6] = tested on: Euschistus heros; assay: Euschistus heros (neotropical brown stink bug), sprayed soybean leaves; conditions: 120 h, application rate 200 ppm, N2 nymphs, 5 days after infestation, read-out: effect in at least one of the two categories (mortality or growth inhibition)
How it was run: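 Scored 5 days post-infestation versus untreated controls, for both mortality and growth inhibition: N2 nymphs placed on agar-mounted soybean leaves previously sprayed at 200 ppm with aqueous test solutions from DMSO stocks and left to dry.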

[7] = tested on: Thrips tabaci; assay: Thrips tabaci (onion thrips): feeding/contact activity; conditions: 144 h, application rate 200 ppm, Thrips population of mixed ages, 6 days after infestation, read-out: mortality
Description: as §1, with “on” for “onto”, “in” for “in a”, “plates” for “plate”, “drying” for “drying,”, “a Thrips” for “an aphid”

[8] = tested on: Spodoptera littoralis; assay: Spodoptera littoralis (Egyptian cotton leaf worm), uptake by lettuce roots from agar; conditions: 144 h, read-out: effect in at least one of the three categories (mortality, anti-feeding, or growth inhibition);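 note: 12.5 ppm test rate in agar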
How it was run: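 Systemic test: Spodoptera eggs placed on lettuce leaves from seedlings raised 7 days on agar containing the compound (diluted from 10'000 ppm DMSO stock). Six days after infestation, larvae scored against untreated controls for mortality, feeding deterrence and growth inhibition.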

Cc1cc(C2=NO[C@@](c3cc(Cl)c(F)c(Cl)c3)(C(F)(F)F)C2)ccc1C(=O)N[C@H]1CON(S(C)(=O)=O)C1 (single isomer, unassigned) [Compound A13]
≥ 80%: percent effect (mortality or growth inhibition) at 200 ppm [1] | percent effect (mortality or growth inhibition) at 200 ppm [2] | mortality at 200 ppm [3] | mortality at 200 ppm [4] | mortality at 200 ppm [5] | percent effect (mortality or growth inhibition) at 200 ppm [6] | mortality at 200 ppm [7] | percent control (mortality, anti-feedant effect or growth inhibition) at 12.5 ppm [8]

COCCN(C)S(=O)(=O)N1CC(NC(=O)c2ccc(C3=NO[C@@](c4cc(Cl)c(Cl)c(Cl)c4)(C(F)(F)F)C3)cc2C)CO1 (stereo partly drawn) [Compound A90, N-[2-[2-methoxyethyl(methyl)sulfamoyl]isoxazolidin-4-yl]-2-methyl-4-[(5S)-5-(3,4,5-trichlorophenyl)-5-(trifluoromethyl)-4H-isoxazol-3-yl]benzamide]
≥ 80%: percent effect (mortality or growth inhibition) at 200 ppm [1] | percent effect (mortality or growth inhibition) at 200 ppm [2] | mortality at 200 ppm [3] | mortality at 200 ppm [4] | mortality at 200 ppm [5] | percent effect (mortality or growth inhibition) at 200 ppm [6] | mortality at 200 ppm [7] | percent control (mortality, anti-feedant effect or growth inhibition) at 12.5 ppm [8]

CCNS(=O)(=O)N1C[C@@H](NC(=O)c2ccc(C3=NO[C@@](c4cc(Cl)cc(Cl)c4)(C(F)(F)F)C3)cc2Cl)CO1 [Compound A113, 2-chloro-4-[(5S)-5-(3,5-dichlorophenyl)-5-(trifluoromethyl)-4H-isoxazol-3-yl]-N-[(4R)-2-(ethylsulfamoyl)isoxazolidin-4-yl]benzamide]
≥ 80%: percent effect (mortality or growth inhibition) at 200 ppm [1] | percent effect (mortality or growth inhibition) at 200 ppm [2] | mortality at 200 ppm [3] | mortality at 200 ppm [4] | mortality at 200 ppm [5] | percent effect (mortality or growth inhibition) at 200 ppm [6] | mortality at 200 ppm [7] | percent control (mortality, anti-feedant effect or growth inhibition) at 12.5 ppm [8]

CCN(C)S(=O)(=O)N1CC(NC(=O)c2ccc(C3=NO[C@@](c4cc(Cl)c(Cl)c(Cl)c4)(C(F)(F)F)C3)cc2C)CO1 (stereo partly drawn) [Compound A73, N-[2-[ethyl(methyl)sulfamoyl]isoxazolidin-4-yl]-2-methyl-4-[(5S)-5-(3,4,5-trichlorophenyl)-5-(trifluoromethyl)-4H-isoxazol-3-yl]benzamide]
≥ 80%: percent effect (mortality or growth inhibition) at 200 ppm [1] | percent effect (mortality or growth inhibition) at 200 ppm [2] | mortality at 200 ppm [3] | mortality at 200 ppm [4] | mortality at 200 ppm [5] | percent effect (mortality or growth inhibition) at 200 ppm [6] | mortality at 200 ppm [7] | percent control (mortality, anti-feedant effect or growth inhibition) at 12.5 ppm [8]

CCN(C)S(=O)(=O)N1C[C@@H](NC(=O)c2ccc(C3=NO[C@@](c4cc(Cl)cc(Cl)c4)(C(F)(F)F)C3)cc2C)CO1 [Compound A142]
≥ 80%: percent effect (mortality or growth inhibition) at 200 ppm [1] | percent effect (mortality or growth inhibition) at 200 ppm [2] | mortality at 200 ppm [3] | mortality at 200 ppm [4] | mortality at 200 ppm [5] | percent effect (mortality or growth inhibition) at 200 ppm [6] | mortality at 200 ppm [7] | percent control (mortality, anti-feedant effect or growth inhibition) at 12.5 ppm [8]

Cc1cc(C2=NO[C@@](c3cc(Cl)cc(Cl)c3)(C(F)(F)F)C2)ccc1C(=O)N[C@H]1CON(S(=O)(=O)NC2CC2)C1 [Compound A155]
≥ 80%: percent effect (mortality or growth inhibition) at 200 ppm [1] | percent effect (mortality or growth inhibition) at 200 ppm [2] | mortality at 200 ppm [3] | mortality at 200 ppm [4] | mortality at 200 ppm [5] | percent effect (mortality or growth inhibition) at 200 ppm [6] | mortality at 200 ppm [7] | percent control (mortality, anti-feedant effect or growth inhibition) at 12.5 ppm [8]

CCS(=O)(=O)N1C[C@@H](NC(=O)c2ccc(C3=NO[C@@](c4cc(Cl)c(F)c(Cl)c4)(C(F)(F)F)C3)cc2C)CO1 [Compound A119]
≥ 80%: percent effect (mortality or growth inhibition) at 200 ppm [1] | percent effect (mortality or growth inhibition) at 200 ppm [2] | mortality at 200 ppm [3] | mortality at 200 ppm [4] | mortality at 200 ppm [5] | percent effect (mortality or growth inhibition) at 200 ppm [6] | mortality at 200 ppm [7] | percent control (mortality, anti-feedant effect or growth inhibition) at 12.5 ppm [8]

CS(=O)(=O)N1C[C@@H](NC(=O)c2ccc(C3=NO[C@@](c4cc(Cl)c(Cl)c(Cl)c4)(C(F)(F)F)C3)cc2Cl)CO1 [Compound A145]
≥ 80%: percent effect (mortality or growth inhibition) at 200 ppm [1] | percent effect (mortality or growth inhibition) at 200 ppm [2] | mortality at 200 ppm [3] | mortality at 200 ppm [4] | mortality at 200 ppm [5] | percent effect (mortality or growth inhibition) at 200 ppm [6] | mortality at 200 ppm [7] | percent control (mortality, anti-feedant effect or growth inhibition) at 12.5 ppm [8]

Cc1cc(C2=NO[C@@](c3cc(Cl)c(Cl)c(Cl)c3)(C(F)(F)F)C2)ccc1C(=O)NC1CON(S(=O)(=O)N(C)CC#N)C1 (stereo partly drawn) [Compound A87, N-[2-[cyanomethyl(methyl)sulfamoyl]isoxazolidin-4-yl]-2-methyl-4-[(5S)-5-(3,4,5-trichlorophenyl)-5-(trifluoromethyl)-4H-isoxazol-3-yl]benzamide]
≥ 80%: percent effect (mortality or growth inhibition) at 200 ppm [1] | percent effect (mortality or growth inhibition) at 200 ppm [2] | mortality at 200 ppm [3] | mortality at 200 ppm [4] | mortality at 200 ppm [5] | percent effect (mortality or growth inhibition) at 200 ppm [6] | mortality at 200 ppm [7] | percent control (mortality, anti-feedant effect or growth inhibition) at 12.5 ppm [8]

Cc1cc(C2=NO[C@@](c3cc(Cl)cc(Cl)c3)(C(F)(F)F)C2)ccc1C(=O)N[C@H]1CON(S(=O)(=O)N(C)C)C1 [Compound A39]
≥ 80%: percent effect (mortality or growth inhibition) at 200 ppm [1] | percent effect (mortality or growth inhibition) at 200 ppm [2] | mortality at 200 ppm [3] | mortality at 200 ppm [4] | mortality at 200 ppm [5] | percent effect (mortality or growth inhibition) at 200 ppm [6] | mortality at 200 ppm [7] | percent control (mortality, anti-feedant effect or growth inhibition) at 12.5 ppm [8]

CCNS(=O)(=O)N1C[C@@H](NC(=O)c2ccc(C3=NO[C@@](c4cc(Cl)cc(Cl)c4)(C(F)(F)F)C3)cc2C)CO1 [Compound A135, 4-[(5S)-5-(3,5-dichlorophenyl)-5-(trifluoromethyl)-4H-isoxazol-3-yl]-N-[(4R)-2-(ethylsulfamoyl)isoxazolidin-4-yl]-2-methyl-benzamide]
≥ 80%: percent effect (mortality or growth inhibition) at 200 ppm [1] | percent effect (mortality or growth inhibition) at 200 ppm [2] | mortality at 200 ppm [3] | mortality at 200 ppm [4] | mortality at 200 ppm [5] | percent effect (mortality or growth inhibition) at 200 ppm [6] | mortality at 200 ppm [7] | percent control (mortality, anti-feedant effect or growth inhibition) at 12.5 ppm [8]

CCS(=O)(=O)N1C[C@@H](NC(=O)c2ccc(C3=NO[C@@](c4cc(Cl)c(Cl)c(Cl)c4)(C(F)(F)F)C3)cc2C)CO1 [Compound A118]
≥ 80%: percent effect (mortality or growth inhibition) at 200 ppm [1] | percent effect (mortality or growth inhibition) at 200 ppm [2] | mortality at 200 ppm [3] | mortality at 200 ppm [4] | mortality at 200 ppm [5] | percent effect (mortality or growth inhibition) at 200 ppm [6] | mortality at 200 ppm [7] | percent control (mortality, anti-feedant effect or growth inhibition) at 12.5 ppm [8]

Cc1cc(C2=NO[C@@](c3cc(Cl)c(F)c(Cl)c3)(C(F)(F)F)C2)ccc1C(=O)NC1CON(S(=O)(=O)NC(C)(C)C)C1 (some centres unmarked) [Compound A97]
≥ 80%: percent effect (mortality or growth inhibition) at 200 ppm [1] | percent effect (mortality or growth inhibition) at 200 ppm [2] | mortality at 200 ppm [3] | mortality at 200 ppm [4] | mortality at 200 ppm [5] | percent effect (mortality or growth inhibition) at 200 ppm [6] | mortality at 200 ppm [7] | percent control (mortality, anti-feedant effect or growth inhibition) at 12.5 ppm [8]
